Measured values from paper PMC7967119, “Design and Synthesis of Non-Covalent Imidazo[1,2-a]quinoxaline-Based Inhibitors of EGFR and Their Anti-Cancer Assessment” (Molecules, 2021).
Read-outs that look alike come from different tables or passages of the source. One block for each molecule: values may come before it.

Experiments:
[1] = molecular target: EGFR^WT (Homo sapiens, UniProt P00533); assay: EGFR inhibitory assay (Z-lyte kinase assay kit, Tyr 4 peptide, FRET-based); assay type: biochemical
Description: The test compounds were analyzed for EGFR inhibitory potential using z-lyte kinase assay kit–tyr 4 peptide assay kit (catalogue no. PV3193; Thermofisher, Mumbai, Maharashtra, India). The assay biochemically is FRET-based, which involves coupled enzyme format that relies on differential sensitivity of proteolytic cleavage of phosphorylated and non-phosphorylated peptides. The reaction proceeds in two steps, first involving the kinase reaction that is concerned with the transfer of phosphate group from ATP to single tyrosine residue, followed by development reaction, which involves site-protease role and cleaves non-phosphorylated peptide, allowing the disruption of FRET between donor and acceptor end of phosphorylated peptide, which facilitates deducing the emission ratio. The assay was performed per manufacturer protocol and per our published reports. […] Next, the assay master mix was prepared under ice-cold conditions by thawing and mixing kinase buffer (133 µL), kinase peptides (0.5 µL), phosphopeptide (0.5 µL) along with ATP (0.5 µL) solution. The master mix was added to testing compounds and further incubated for 1 h at room temperature and allowed the kinase reaction followed by development reaction to occur. After the stipulated period, reaction was stopped by addition of 5 µL stop solution to each reaction mixture.
The extent of phosphorylation was calculated by the following formula (Equation (1)):(1) % phosphorylation =1− (Emission ratio× F100%)− C100%/(C0%−C100%) + [Emission ratio (F100%−F0%)] where C0% = Average coumarin emission signal of the […]; F100% = Average Fluorescein emission signal of the 100% Phos. Control; F0% = Average Fluorescein emission signal of the 0% Phos. Control.

[2] = test system: HCT-116 WT (colon cancer) cells; assay: MTT antiproliferative assay, HCT-116 WT; conditions: Homo sapiens, HCT-116, 48 h, read-out: IC50 (μM) ± SEM, HCT-116 WT (Colon Cancer)
[3] = test system: MDA-MB-231 cells; assay: H2DCFDA assay of ROS in MDA-MB-231; assay type: cell-based, human; conditions: sub-IC50 concentration, 48 h
[4] = test system: A549 cells; assay: Flow cytometric PI cell cycle analysis in A549; assay type: cell-based, human; conditions: A549, sub-IC50 concentration, 48 h
Description: The assays were performed following our previous published reports. Briefly, A549 cells were cultured in 100 mm dishes and maintained to attain at least 80% confluency. […] After the stipulated period, the remaining media were collected along with the cells (trypsinization) and were centrifuged (1200 rpm for 5 min) and washed two times using 1X PBS. Furthermore, the cells were raised to the concentration of 400 µL and were equally divided (5 × 10^4) in four aliquots. The first three aliquots were added with H2DCFDA (10 µM/100 µL), JC-1 dye (1 mM/mL) and Annexin V and PI (as per manufacturer protocol (Thermo Fisher: V13242, Maharashtra, India) to analyze detection of alteration in ROS, ∆ψm and mode of cell death, respectively. The cancer cells were incubated in the dark for 30 min at rt before analysis. Next, the fourth aliquot cells were fixed using chilled ethanol (70%) and incubated at −20 °C for 4 h to allow fixing. After 4 h, cells were centrifuged (2200 rpm for 10 min) and washed twice with 1X PBS. Furthermore, the cells were treated with RNase and PI was added and they were further incubated for 30 min in the dark before analysis. All the samples were analyzed using BD C6 flow cytometer using various FL channels.

[5] = test system: MDA-MB-231 (breast cancer) cells; assay: MTT antiproliferative assay, MDA-MB-231; conditions: Homo sapiens, MDA-MB-231, 48 h, read-out: IC50 (μM) ± SEM, MDA-MB-231 (Breast Cancer)
[6] = test system: MCF-7 (breast) cells; assay: H2DCFDA assay of ROS in MCF-7; assay type: cell-based; conditions: sub-IC50 concentration, 48 h
[7] = test system: A549 (lung cancer) cells harboring EGFR^WT; assay: MTT antiproliferative assay, A549; conditions: Homo sapiens, A549, 48 h, read-out: IC50 (μM) ± SEM, A549 (Lung Cancer)
[8] = EGFR wild type, tested at 100, 250, 500 and 720 nM, triplicate, read-out: EGFR Inhibition IC50 (nM) ± SEM

EGFR^WT, sequence (P00533 25-1210): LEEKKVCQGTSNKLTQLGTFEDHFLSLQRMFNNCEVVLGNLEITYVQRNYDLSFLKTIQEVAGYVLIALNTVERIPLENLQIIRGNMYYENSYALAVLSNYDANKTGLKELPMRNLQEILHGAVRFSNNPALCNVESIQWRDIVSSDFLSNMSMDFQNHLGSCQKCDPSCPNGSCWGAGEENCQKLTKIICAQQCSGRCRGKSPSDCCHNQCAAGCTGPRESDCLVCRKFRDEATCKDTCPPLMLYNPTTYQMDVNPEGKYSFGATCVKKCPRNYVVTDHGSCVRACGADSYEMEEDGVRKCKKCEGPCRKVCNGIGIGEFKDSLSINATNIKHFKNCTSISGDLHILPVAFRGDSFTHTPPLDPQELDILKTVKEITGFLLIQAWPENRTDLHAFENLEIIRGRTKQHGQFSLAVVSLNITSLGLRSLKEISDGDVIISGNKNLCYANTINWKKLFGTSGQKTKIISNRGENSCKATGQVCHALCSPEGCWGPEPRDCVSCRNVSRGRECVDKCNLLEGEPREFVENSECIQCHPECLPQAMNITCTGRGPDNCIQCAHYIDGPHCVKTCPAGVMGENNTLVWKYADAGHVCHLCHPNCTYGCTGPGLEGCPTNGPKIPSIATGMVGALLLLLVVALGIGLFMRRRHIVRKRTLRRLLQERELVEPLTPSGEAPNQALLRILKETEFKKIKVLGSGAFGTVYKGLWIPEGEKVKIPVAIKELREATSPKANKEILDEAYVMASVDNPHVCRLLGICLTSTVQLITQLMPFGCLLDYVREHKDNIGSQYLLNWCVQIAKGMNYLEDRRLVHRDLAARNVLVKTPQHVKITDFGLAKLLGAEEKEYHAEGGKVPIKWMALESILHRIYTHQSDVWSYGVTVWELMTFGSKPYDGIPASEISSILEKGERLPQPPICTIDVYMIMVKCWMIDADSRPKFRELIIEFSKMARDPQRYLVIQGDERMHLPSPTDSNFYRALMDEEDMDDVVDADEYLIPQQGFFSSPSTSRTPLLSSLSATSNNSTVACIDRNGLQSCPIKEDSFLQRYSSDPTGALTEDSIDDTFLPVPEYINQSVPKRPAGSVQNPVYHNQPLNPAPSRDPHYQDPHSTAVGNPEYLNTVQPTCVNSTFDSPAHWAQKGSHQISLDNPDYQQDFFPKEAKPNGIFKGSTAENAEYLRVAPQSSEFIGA

SMILES: COc1cc(-c2nc3ccccc3n3c(N)c(C#N)nc23)cc(OC)c1OC [Compound 5a]
EGFR^WT inhibitory activity in words ([1]; EGFR wild type): poorly active or possessed no activity at all
IC50 [1, 8]: > 720 nM

SMILES: N#Cc1nc2c(-c3cccc([N+](=O)[O-])c3)nc3ccccc3n2c1N [Compound 5b]
IC50 [1, 8]: 244.45 ± 0.032 nM

SMILES: CN(C)c1ccc(-c2nc3ccccc3n3c(N)c(C#N)nc23)cc1 [Compound 5c, 1-Amino-4-(4-(dimethylamino)phenyl)imidazo[1,2-a]quinoxaline-2-carbonitrile]
EGFR^WT inhibitory activity in words ([1]; EGFR wild type): poorly active or possessed no activity at all
IC50 [1, 8]: > 720 nM
melting point: 169 to 171 °C

SMILES: CC(C)c1ccc(-c2nc3ccccc3n3c(N)c(C#N)nc23)cc1 [Compound 5d, 1-Amino-4-(4-isopropylphenyl)imidazo[1,2-a]quinoxaline-2-carbonitrile]
EGFR^WT inhibitory activity in words ([1]; EGFR wild type): poorly active or possessed no activity at all
IC50 [1, 8]: > 720 nM
melting point: 166 to 168 °C

SMILES: COc1ccc(OC)c(/C=N/c2c(C#N)nc3c(-c4cc(OC)ccc4OC)nc4ccccc4n23)c1 [Compound 6a]
IC50 [1, 8]: 429.81 ± 0.018 nM

SMILES: COc1cc(/C=N/c2c(C#N)nc3c(-c4cc(OC)c(OC)c(OC)c4)nc4ccccc4n23)cc(OC)c1OC [Compound 6b, (E)-1-((3,4,5-Trimethoxybenzylidene)amino)-4-(3,4,5-trimethoxyphenyl)imidazo[1,2-a]quinoxaline-2-carbonitrile]
IC50 [2]: 5.1 ± 0.029 µM
Percentage decrease in ROS, MDA-MB-231 [3]: marginal
Cell cycle analysis G1 (%) [4]: 34.51%
IC50 [1, 8]: 211.22 ± 0.027 nM
IC50 [5]: 4.1 ± 0.031 µM
Percentage decrease in ROS, MCF-7 [6]: marginal

SMILES: COc1ccc(/C=N/c2c(C#N)nc3c(-c4ccc(OC)c(OC)c4)nc4ccccc4n23)cc1OC [Compound 6c, (E)-1-((3,4-Dimethoxybenzylidene)amino)-4-(3,4-dimethoxy-phenyl)imidazo[1,2-a]quinoxaline-2-carbonitrile]
EGFR^WT inhibitory activity in words ([1]; EGFR wild type): poorly active or possessed no activity at all
IC50 [1, 8]: > 720 nM
melting point: 170 to 172 °C

SMILES: N#Cc1nc2c(-c3ccc(Cl)cc3)nc3ccccc3n2c1/N=C/c1ccc(Cl)cc1 [Compound 6d]
EGFR^WT inhibitory activity in words ([1]; EGFR wild type): poorly active or possessed no activity at all
IC50 [1, 8]: > 720 nM

SMILES: N#Cc1nc2n(c1/N=C/c1ccc([N+](=O)[O-])cc1[N+](=O)[O-])-c1ccccc1NC2c1ccc([N+](=O)[O-])cc1[N+](=O)[O-] (stereo not shown) [Compound 7g]
IC50 [1, 8]: 476.87 ± 0.022 nM

SMILES: N#Cc1nc2n(c1/N=C/c1ccc([N+](=O)[O-])cc1)-c1ccccc1NC2c1ccc([N+](=O)[O-])cc1 (stereo not shown) [Compound 7j]
IC50 [2]: < 1 µM
IC50 [7]: 8.75 ± 0.028 µM
IC50 [1]: 193.18 ± 0.021 nM
IC50 [5]: 2.2 ± 0.026 µM

SMILES: N#Cc1nc2n(c1N)-c1ccccc1N1C(=O)CCC21 (stereo not shown) [Compound 11]
EGFR^WT inhibitory activity in words ([1]; EGFR wild type): poorly active or possessed no activity at all
IC50 [1, 8]: 669.39 ± 0.019 nM

SMILES: C#Cc1cccc(Nc2ncnc3cc(OCCOC)c(OCCOC)cc23)c1 [Erlotinib, erlotinib, reference compound]
IC50 [2]: 2.98 ± 0.023 µM
IC50 [5]: 3.33 ± 0.018 µM

Now from value to molecule, other results behind:

IC50 [1, 8]: > 720 nM
SMILES: COc1ccc(/C=N/c2c(C#N)nc3n2-c2ccccc2NC3c2ccc(OC)c(OC)c2)cc1OC (stereo not shown) [Compound 7a]

IC50 [1, 8]: > 720 nM
SMILES: N#Cc1nc2n(c1/N=C/c1ccccc1[N+](=O)[O-])-c1ccccc1NC2c1ccccc1[N+](=O)[O-] (stereo not shown) [Compound 7b]

IC50 [1, 8]: 620.17 ± 0.019 nM
SMILES: N#Cc1nc2n(c1/N=C/c1ccc(O)c(O)c1)-c1ccccc1NC2c1ccc(O)c(O)c1 (stereo not shown) [Compound 7c]

IC50 [1, 8]: 652.56 ± 0.024 nM
SMILES: COc1ccc(OC)c(/C=N/c2c(C#N)nc3n2-c2ccccc2NC3c2cc(OC)ccc2OC)c1 (stereo not shown) [Compound 7d]

IC50 [1, 8]: 665.89 ± 0.029 nM
SMILES: N#Cc1nc2n(c1/N=C/c1ccccc1Br)-c1ccccc1NC2c1ccccc1Br (stereo not shown) [Compound 7e]

IC50 [1, 8]: 232.4 ± 0.031 nM
SMILES: N#Cc1nc2n(c1/N=C/c1ccco1)-c1ccccc1NC2c1ccco1 (stereo not shown) [Compound 7f]

IC50 [2]: < 1 µM
IC50 [7]: 4.09 ± 0.024 µM
IC50 [1, 8]: 222.21 ± 0.028 nM
IC50 [5]: 11.2 ± 0.022 µM
SMILES: N#Cc1nc2n(c1/N=C/c1ccccc1F)-c1ccccc1NC2c1ccccc1F (stereo not shown) [Compound 7h]

IC50 [1, 8]: 613.37 ± 0.024 nM
SMILES: COc1cc(/C=N/c2c(C#N)nc3n2-c2ccccc2NC3c2cc(OC)c(OC)c(OC)c2)cc(OC)c1OC (stereo not shown) [Compound 7i]
EGFR^WT inhibitory activity in words ([1]; EGFR wild type): poorly active or possessed no activity at all

IC50 [1, 8]: > 720 nM
melting point: 173 to 175 °C
SMILES: N#Cc1ccc(/C=N/c2c(C#N)nc3n2-c2ccccc2NC3c2ccc(C#N)cc2)cc1 (stereo not shown) [Compound 7k, (E)-1-((4-Cyanobenzylidene)amino)-4-(4-cyanophenyl)-4,5-dihydroimidazo[1,2-a]quinoxaline-2-carbonitrile]
EGFR^WT inhibitory activity in words ([1]; EGFR wild type): poorly active or possessed no activity at all

IC50 [1, 8]: > 720 nM
SMILES: N#Cc1ccc(C2Nc3ccccc3-n3c2nc(C#N)c3N)cc1 (stereo not shown) [Compound 8a]

IC50 [1, 8]: > 720 nM
SMILES: N#Cc1nc2n(c1N)-c1ccccc1NC2c1cccc([N+](=O)[O-])c1 (stereo not shown) [Compound 8b]

IC50 [1, 8]: > 720 nM
melting point: 165 to 167 °C
SMILES: N#Cc1nc2n(c1N)-c1ccccc1NC2c1ccccc1[N+](=O)[O-] (stereo not shown) [Compound 8c, 1-Amino-4-(2-nitrophenyl)-4,5-dihydroimidazo[1,2-a]quinoxaline-2-carbonitrile]

IC50 [2]: > 25 µM
IC50 [7]: 6.63 ± 0.031 µM
IC50 [1, 8]: 223.32 ± 0.031 nM
IC50 [5]: 14.1 ± 0.021 µM
SMILES: C/C(=N\c1c(C#N)nc2n1-c1ccccc1NC2(C)c1ccc(Cl)cc1)c1ccc(Cl)cc1 (stereo not shown) [Compound 9a]

IC50 [1, 8]: 244.51 ± 0.021 nM
SMILES: C/C(=N\c1c(C#N)nc2n1-c1ccccc1NC2(C)c1cccs1)c1cccs1 (stereo not shown) [Compound 9b]

IC50 [2]: 7.9 ± 0.027 µM
IC50 [7]: 12.06 ± 0.021 µM
IC50 [1, 8]: 221.53 ± 0.028 nM
IC50 [5]: 13.6 ± 0.028 µM
SMILES: COc1ccc(/C(C)=N/c2c(C#N)nc3n2-c2ccccc2NC3(C)c2ccc(OC)c(OC)c2)cc1OC (stereo not shown) [Compound 9c]

IC50 [1, 8]: 247.32 ± 0.021 nM
SMILES: CC1(c2cccc([N+](=O)[O-])c2)Nc2ccccc2-n2c1nc(C#N)c2N (stereo not shown) [Compound 10a]

IC50 [1, 8]: 716.32 ± 0.026 nM
SMILES: N#Cc1nc2n(c1N)-c1ccccc1NC2(C(=O)c1ccccc1)c1ccccc1 (stereo not shown) [Compound 10c]

IC50 [1, 8]: 624.57 ± 0.024 nM
SMILES: CC1(C)Nc2ccccc2-n2c1nc(C#N)c2N [Compound 10d]
